# Publication PMC6765698 (CPT: Pharmacometrics & Systems Pharmacology, 2019)
# Where two headings read alike, the source gives them in different places.
# How the values were obtained:
# [1] = Octanol-water partition coefficient logP / logD; assay type: physicochemical
# [2] = Acid dissociation constant pKa; assay type: physicochemical; details: mean measured, WG, monoprotic base
# [3] = Equilibrium solubility in aqueous and bio-relevant media; assay type: physicochemical; details: fed state simulated intestinal fluid, pH 5.0
# WG PBPK model = experiment: WG PBPK model; parameters: species or system human
# [4] = pH 1.1; ADAM model input; ref Taupitz 2013 42; cited from earlier work
# [5] = 100 mg i.v. dose; cited from earlier work
# CYP3A4 [6] = molecular target: T1, CYP3A4 (Homo sapiens, UniProt P08684); experiment: Enzyme kinetics; details: human liver microsomes
# [7] = Fraction unbound in human liver microsomes; assay type: in vitro ADME; details: equilibrium dialysis at 0.05-[…], calculated at […], WG
# CYP3A4 [8] = molecular target: T1, CYP3A4; assay type: biochemical
# [9] = tube adsorption method; ref Isoherranen 2004 (34); cited from earlier work
# [10] = Blood/plasma partition ratio; assay type: in vitro ADME; details: WG
# [11] = first-order absorption model, capsule fasted, adjusted to fit observed data
# T1 sequence (P08684 whole entry): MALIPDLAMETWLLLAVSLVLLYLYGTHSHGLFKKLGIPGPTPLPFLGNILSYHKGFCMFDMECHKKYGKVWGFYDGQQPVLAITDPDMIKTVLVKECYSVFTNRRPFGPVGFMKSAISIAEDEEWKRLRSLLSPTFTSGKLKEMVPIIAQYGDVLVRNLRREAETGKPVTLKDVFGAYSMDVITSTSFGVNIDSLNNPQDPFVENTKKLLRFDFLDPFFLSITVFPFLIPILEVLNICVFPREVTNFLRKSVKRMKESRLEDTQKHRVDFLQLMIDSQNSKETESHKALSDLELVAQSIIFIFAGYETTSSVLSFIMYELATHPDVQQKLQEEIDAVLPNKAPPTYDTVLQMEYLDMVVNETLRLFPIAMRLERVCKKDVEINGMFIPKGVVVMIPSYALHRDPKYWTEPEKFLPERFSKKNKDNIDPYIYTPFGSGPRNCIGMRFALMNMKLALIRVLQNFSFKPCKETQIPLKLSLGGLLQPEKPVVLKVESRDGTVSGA
pKa [2],Solubility in FeSSIF [3] [µg/mL],Active uptake into hepatocyte (scaling factor) (WG PBPK model; estimated to best describe ITZ IV CL),Fa (WG PBPK model; [11]),ka (WG PBPK model; [11]) [h⁻¹],Km (CYP3A4 [6]) [µM],SMILES,logP [1],Intrinsic solubility [4] [µg/mL],CL observed in vivo [5],"fu,mic ([…] HLM) [7]","Fold less potent than previously reported (CYP3A4 inhibition) (CYP3A4 [8]; apparent Ki in microsomes with WG fu,mic vs literature)","fu,mic ([…] HLM) [9]",pKa ([2]; pKa),B/P [10],Ki (CYP3A4 [8]) [nM]
3.64,5,3.5,0.5,0.2,0.0233,"CCC(C)n1ncn(-c2ccc(N3CCN(c4ccc(OCC5COC(Cn6cncn6)(c6ccc(Cl)cc6Cl)O5)cc4)CC3)cc2)c1=O (stereo not shown) [ITZ, itraconazole]",4.9,150,~ 21 L/hour,,,,,,
,,,,,,O=c1[nH]ncn1-c1ccc(N2CCN(c3ccc(OCC4COC(Cn5cncn5)(c5ccc(Cl)cc5Cl)O4)cc3)CC2)cc1 (stereo not shown) [ND-ITZ],,,,0.70,approximately 40 fold,0.026,,,
,,,,,,"CC(O)C(C)n1ncn(-c2ccc(N3CCN(c4ccc(OCC5COC(Cn6cncn6)(c6ccc(Cl)cc6Cl)O5)cc4)CC3)cc2)c1=O (stereo not shown) [OH-ITZ, hydroxyitraconazole]",4.1,,,,,,4,0.55,8.2
